Laboratory results reported in article PMC10503797, “Allosteric modulator potentiates β2AR agonist–promoted bronchoprotection in asthma models” (The Journal of Clinical Investigation, 2023).
Several values for one entry are separate records, joined by “and”; a condition that tells them apart may be missing. Equal entries are not always repeated.

Target: guinea pig β2AR (Cavia porcellus, UniProt Q8K4Z4)
Assay: 125I-CYP radioligand competition binding, guinea pig β2AR

guinea pig β2AR, sequence (Q8K4Z4 whole entry): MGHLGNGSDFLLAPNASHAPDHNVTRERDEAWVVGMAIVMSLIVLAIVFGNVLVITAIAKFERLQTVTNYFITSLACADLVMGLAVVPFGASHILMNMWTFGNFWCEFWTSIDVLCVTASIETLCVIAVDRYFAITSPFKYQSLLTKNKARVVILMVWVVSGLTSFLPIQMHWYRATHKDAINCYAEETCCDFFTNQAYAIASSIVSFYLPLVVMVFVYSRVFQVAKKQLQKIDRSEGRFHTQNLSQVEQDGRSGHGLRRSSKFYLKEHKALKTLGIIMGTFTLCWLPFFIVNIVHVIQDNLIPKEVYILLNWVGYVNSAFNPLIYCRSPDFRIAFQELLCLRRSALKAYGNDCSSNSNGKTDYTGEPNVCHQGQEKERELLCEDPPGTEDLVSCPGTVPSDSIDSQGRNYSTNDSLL

COc1ccc(Sc2ccc(S(=O)(=O)N(C)C(C)C)cc2C(=O)N[C@H](CC(N)=O)Cc2ccc(C(C)(C)C)cc2)cc1 [Cmpd-6]
125I-CYP binding, ISO competition curve (Figure 4B) (Cmpd-6 [5 uM], Log [ISO] (M) -7.50515): 44.1147 and 80.7404 and 64.2013 and 72.7308 and 72.5102 | 125I-CYP binding, ISO competition curve (Figure 4B) (Cmpd-6 [5 uM], Log [ISO] (M) -8.70927): 91.2908 and 98.8095 and 98.5241 and 100.522 and 98.3672 | 125I-CYP binding, ISO competition curve (Figure 4B) (Cmpd-6 [5 uM], Log [ISO] (M) -9.31133): 97.2169 and 98.4924 and 100.303 and 100.814 and 103.36 | 125I-CYP binding, ISO competition curve (Figure 4B) (Cmpd-6 [5 uM], Log [ISO] (M) -9.91339): 98.5199 and 97.6422 and 100.698 and 101.104 and 99.2184 | 125I-CYP binding, ISO competition curve (Figure 4B) (Cmpd-6 [5 uM], Log [ISO] (M) -11 (DMSO)): 103.509 and 97.6444 and 99.5117 and 98.3736 and 96.5817 | 125I-CYP binding, Alb competition curve (Figure 4E) (Cmpd-6 [25 uM], Log [Alb] (M) -4.49485): 2.733 and 2.385 and 4.038 and 2.554 | 125I-CYP binding, Alb competition curve (Figure 4E) (Cmpd-6 [25 uM], Log [Alb] (M) -5.09691): 4.618 and 4.73 and 8.896 and 4.926 | 125I-CYP binding, Alb competition curve (Figure 4E) (Cmpd-6 [25 uM], Log [Alb] (M) -6.30103): 28.5337 and 34.114 and 50.4761 and 33.3615 | 125I-CYP binding, Alb competition curve (Figure 4E) (Cmpd-6 [25 uM], Log [Alb] (M) -6.90309): 59.5755 and 62.9432 and 76.3108 and 62.8869 | 125I-CYP binding, Alb competition curve (Figure 4E) (Cmpd-6 [25 uM], Log [Alb] (M) -7.50515): 81.8149 and 87.2785 and 93.3109 and 87.5413 | 125I-CYP binding, Alb competition curve (Figure 4E) (Cmpd-6 [25 uM], Log [Alb] (M) -8.10721): 96.1096 and 95.2866 and 96.5894 and 97.0774 | 125I-CYP binding, Alb competition curve (Figure 4E) (Cmpd-6 [25 uM], Log [Alb] (M) -8.70927): 98.1238 and 100.926 and 100.115 and 99.527 | 125I-CYP binding, Alb competition curve (Figure 4E) (Cmpd-6 [25 uM], Log [Alb] (M) -9.31133): 102.128 and 99.4951 and 103.592 and 101.926 | 125I-CYP binding, Alb competition curve (Figure 4E) (Cmpd-6 [25 uM], Log [Alb] (M) -9.91339): 98.9354 and 102.792 and 101.444 and 100.327 | 125I-CYP binding, Alb competition curve (Figure 4E) (Cmpd-6 [25 uM], Log [Alb] (M) -11 (DMSO)): 100.906 and 97.7704 and 98.4446 and 97.5175 | 125I-CYP binding, FEN competition curve (Figure 4D) (Cmpd-6 [25 uM], Log [FEN] (M) -4.49485): 1.409 and 1.866 and 2.061 and 1.201 | 125I-CYP binding, FEN competition curve (Figure 4D) (Cmpd-6 [25 uM], Log [FEN] (M) -6.90309): 30.825 and 36.7624 and 55.798 and 36.3648 | 125I-CYP binding, FEN competition curve (Figure 4D) (Cmpd-6 [25 uM], Log [FEN] (M) -7.50515): 56.6182 and 66.5595 and 80.6389 and 63.8444 | 125I-CYP binding, FEN competition curve (Figure 4D) (Cmpd-6 [25 uM], Log [FEN] (M) -8.10721): 85.2358 and 86.7408 and 95.8272 and 89.5788 | 125I-CYP binding, FEN competition curve (Figure 4D) (Cmpd-6 [25 uM], Log [FEN] (M) -8.70927): 93.1548 and 97.3369 and 100.273 and 95.4081 | 125I-CYP binding, FEN competition curve (Figure 4D) (Cmpd-6 [25 uM], Log [FEN] (M) -9.31133): 99.631 and 100.281 and 99.1957 and 101.634 | 125I-CYP binding, FEN competition curve (Figure 4D) (Cmpd-6 [25 uM], Log [FEN] (M) -9.91339): 99.9681 and 102.324 and 101.127 and 101.353 | 125I-CYP binding, FEN competition curve (Figure 4D) (Cmpd-6 [25 uM], Log [FEN] (M) -11 (DMSO)): 101.956 and 98.6366 and 99.5621 and 98.3857 | 125I-CYP binding, ISO competition curve (Figure 4B) (Cmpd-6 [25 uM], Log [ISO] (M) -5.09691): 1.411 and 1.274 and 2.38 and 2.249 and 1.1946 | 125I-CYP binding, ISO competition curve (Figure 4B) (Cmpd-6 [25 uM], Log [ISO] (M) -6.90309): 12.3266 and 14.2939 and 23.2433 and 22.4081 and 20.0289 | 125I-CYP binding, ISO competition curve (Figure 4B) (Cmpd-6 [25 uM], Log [ISO] (M) -7.50515): 28.0286 and 51.334 and 48.5832 and 48.3069 and 46.746 | 125I-CYP binding, ISO competition curve (Figure 4B) (Cmpd-6 [25 uM], Log [ISO] (M) -8.70927): 84.2583 and 93.8004 and 93.7052 and 91.4625 and 91.5747 | 125I-CYP binding, ISO competition curve (Figure 4B) (Cmpd-6 [25 uM], Log [ISO] (M) -9.31133): 94.8589 and 99.2775 and 101.069 and 99.6071 and 99.1245 | 125I-CYP binding, ISO competition curve (Figure 4B) (Cmpd-6 [25 uM], Log [ISO] (M) -9.91339): 97.1607 and 99.3939 and 99.6796 and 99.8936 and 100.155 | 125I-CYP binding, ISO competition curve (Figure 4B) (Cmpd-6 [25 uM], Log [ISO] (M) -11 (DMSO)): 103.398 and 98.8874 and 98.4421 and 101.926 and 100.783 | 125I-CYP binding, Salm competition curve (Figure 4F) (Cmpd-6 [25 uM], Log [Salm] (M) -5.09691): 4.291 and 4.483 and 7.953 and 4.185 | 125I-CYP binding, Salm competition curve (Figure 4F) (Cmpd-6 [25 uM], Log [Salm] (M) -5.69897): 11.1208 and 11.4804 and 19.9536 and 11.286 | 125I-CYP binding, Salm competition curve (Figure 4F) (Cmpd-6 [25 uM], Log [Salm] (M) -6.30103): 31.3057 and 32.3004 and 47.2072 and 32.0545 | 125I-CYP binding, Salm competition curve (Figure 4F) (Cmpd-6 [25 uM], Log [Salm] (M) -6.90309): 67.1995 and 66.2422 and 79.0931 and 66.807 | 125I-CYP binding, Salm competition curve (Figure 4F) (Cmpd-6 [25 uM], Log [Salm] (M) -7.50515): 88.5873 and 88.904 and 95.0429 and 88.3948 | 125I-CYP binding, Salm competition curve (Figure 4F) (Cmpd-6 [25 uM], Log [Salm] (M) -8.10721): 97.9774 and 97.2972 and 97.374 and 97.0377 | 125I-CYP binding, Salm competition curve (Figure 4F) (Cmpd-6 [25 uM], Log [Salm] (M) -8.70927): 99.3713 and 100.399 and 100.671 and 100.779 | 125I-CYP binding, Salm competition curve (Figure 4F) (Cmpd-6 [25 uM], Log [Salm] (M) -9.31133): 100.672 and 102.486 and 99.6753 and 100.402 | 125I-CYP binding, Salm competition curve (Figure 4F) (Cmpd-6 [25 uM], Log [Salm] (M) -9.91339): 96.4457 and 99.6997 and 100.705 and 99.5228 | 125I-CYP binding, Salm competition curve (Figure 4F) (Cmpd-6 [25 uM], Log [Salm] (M) -11 (DMSO)): 100.872 and 95.2897 and 98.0192 and 98.0519
